Our source for the IC50 values is US20070082880A1 (priority 2005, published 2007).

Structures are written as SMILES.

The target in this test is T1, human PKCθ full length enzyme (Homo sapiens, UniProt Q04759).
T1 construct: human PKCθ full length enzyme (Panvera Catalog No. P2996); purchased Panvera P2996
T1 sequence (Q04759 whole entry): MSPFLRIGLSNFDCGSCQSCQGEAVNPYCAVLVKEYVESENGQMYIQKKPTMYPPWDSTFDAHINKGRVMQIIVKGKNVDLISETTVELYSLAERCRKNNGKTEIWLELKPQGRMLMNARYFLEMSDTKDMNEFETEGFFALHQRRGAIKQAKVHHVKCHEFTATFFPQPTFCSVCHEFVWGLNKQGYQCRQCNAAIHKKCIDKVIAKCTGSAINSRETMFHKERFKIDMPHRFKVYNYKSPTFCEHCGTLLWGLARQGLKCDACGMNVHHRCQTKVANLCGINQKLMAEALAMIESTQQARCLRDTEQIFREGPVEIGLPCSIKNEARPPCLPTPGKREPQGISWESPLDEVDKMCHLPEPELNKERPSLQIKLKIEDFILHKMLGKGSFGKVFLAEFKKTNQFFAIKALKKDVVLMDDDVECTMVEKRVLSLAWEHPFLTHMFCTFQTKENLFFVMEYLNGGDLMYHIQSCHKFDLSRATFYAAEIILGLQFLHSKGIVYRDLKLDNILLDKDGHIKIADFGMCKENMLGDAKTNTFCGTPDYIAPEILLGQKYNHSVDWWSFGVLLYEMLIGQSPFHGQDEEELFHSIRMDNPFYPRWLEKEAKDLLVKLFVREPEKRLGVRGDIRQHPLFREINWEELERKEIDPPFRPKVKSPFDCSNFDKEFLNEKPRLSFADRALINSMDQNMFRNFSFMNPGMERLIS
Put plainly: PKCθ IMAP Assay. Type of test: biochemical. To be noted: average value when one or more samples were tested; ATP 6 uM, PKCθ 1 nM. Put shortly: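 Full-length human PKCθ (1 nM final) with 6 uM ATP and 100 nM 5FAM-labelled peptide, 5% DMSO, 3.0 mM DTT in reaction buffer. 25 min at room temperature; IMAP bead binding 20 min, fluorescence polarization read. Compounds 2:1 serially diluted; no-ATP and no-enzyme wells as controls.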
As for `Cc1c(Nc2c(C#N)cnc3sc(-c4cccc(OC[C@H](O)CO)c4)cc23)ccc2[nH]ccc12` [Compound 484, 2-(3-{[(2R)-2,3-Dihydroxypropyl]-oxy}phenyl)-4-[(4-methyl-1H-indol-5-yl)amino]thieno[2,3-b]pyridine-5-carbonitrile], the IC50 (as a rule, the midpoint of a concentration-inhibition curve) came to 0.017 µM.

In the case of `Cc1c(Nc2c(C#N)cnc3sc(-c4cccc(OC[C@@H](O)CO)c4)cc23)ccc2[nH]ccc12` [Compound 485, 2-(3-{[(2S)-2,3-Dihydroxypropyl]-oxy}phenyl)-4-[(4-methyl-1H-indol-5-yl)amino]thieno[2,3-b]pyridine-5-carbonitrile], the IC50 amounted to 0.04 µM.

For `Cc1c(Nc2c(C#N)cnc3sc(-c4ccc(OC[C@H](O)CO)cc4)cc23)ccc2[nH]ccc12` [Compound 486, 2-(4-{[(2R)-2,3-dihydroxypropyl]-oxy}phenyl)-4-[(4-methyl-1H-indol-5-yl)amino]thieno[2,3-b]pyridine-5-carbonitrile], the IC50 amounted to 0.07 µM.

`Cc1c(Nc2c(C#N)cnc3sc(-c4ccc(OC[C@@H](O)CO)cc4)cc23)ccc2[nH]ccc12` [Compound 487, 2-(4-{[(2S)-2,3-dihydroxypropyl]-oxy}phenyl)-4-[(4-methyl-1H-indol-5-yl)amino]thieno[2,3-b]pyridine-5-carbonitrile] returned an IC50 of 0.041 µM.

In turn, `Cc1c(Nc2c(C#N)cnc3sc(-c4ccc(OC[C@H](C)O)cc4)cc23)ccc2[nH]ccc12` [Compound 488, 2-(4-{[(2S)-2-hydroxypropyl]-oxy}phenyl)-4-[(4-methyl-1H-indol-5-yl)amino]thieno[2,3-b]pyridine-5-carbonitrile] showed a 50% inhibitory concentration (IC50) of 0.2 µM.

`Cc1c(Nc2c(C#N)cnc3sc(-c4ccc(OC[C@@H](C)O)cc4)cc23)ccc2[nH]ccc12` [Compound 489, 2-(4-{[(2R)-2-hydroxypropyl]-oxy}phenyl)-4-[(4-methyl-1H-indol-5-yl)amino]thieno[2,3-b]pyridine-5-carbonitrile] yielded a concentration for half-maximal inhibition (IC50) of 0.175 µM.

In the case of `Cc1c(Nc2c(C#N)cnc3sc(-c4ccccc4OC[C@@H](C)O)cc23)ccc2[nH]ccc12` [Compound 490, 2-(2-{[(2R)-2-hydroxypropyl]-oxy}phenyl)-4-[(4-methyl-1H-indol-5-yl)amino]thieno[2,3-b]pyridine-5-carbonitrile], inhibition was half-maximal at 0.105 µM (IC50).

`Cc1c(Nc2c(C#N)cnc3sc(-c4ccccc4OC[C@H](C)O)cc23)ccc2[nH]ccc12` [Compound 491, 2-(2-{[(2S)-2-hydroxypropyl]-oxy}phenyl)-4-[(4-methyl-1H-indol-5-yl)amino]thieno[2,3-b]pyridine-5-carbonitrile] registered an IC50 of 0.177 µM.

`Cc1c(Nc2c(C#N)cnc3sc(-c4ccccc4OC[C@@H](O)CO)cc23)ccc2[nH]ccc12` [Compound 492, 2-(2-{[(2S)-2,3-dihydroxypropyl]-oxy}phenyl)-4-[(4-methyl-1H-indol-5-yl)amino]thieno[2,3-b]pyridine-5-carbonitrile] displayed an IC50 of 0.05 µM.

As for `Cc1c(Nc2c(C#N)cnc3sc(-c4ccccc4OC[C@H](O)CO)cc23)ccc2[nH]ccc12` [Compound 493, 2-(2-{[(2R)-2,3-dihydroxypropyl]-oxy}phenyl)-4-[(4-methyl-1H-indol-5-yl)amino]thieno[2,3-b]pyridine-5-carbonitrile], the IC50 worked out at 0.045 µM.

With `CN(C)Cc1cccc(-c2cc3c(Nc4cnc5[nH]ccc5c4Cl)c(C#N)cnc3s2)c1` [Compound 498, 4-(4-chloro-1H-pyrrolo[2,3-b]pyridin-5-ylamino)-2-(3-((dimethylamino)methyl)phenyl)thieno[2,3-b]pyridine-5-carbonitrile], it took 0.003 µM to reach half-maximal inhibition (IC50). This IC50 is about 15-fold lower than that of the compound before.

In the case of `N#Cc1c[n+]([O-])c2sccc2c1Nc1ccc2[nH]ccc2c1` [Compound 499, 4-(1H-indol-5-ylamino)thieno[2,3-b]pyridine-5-carbonitrile-7-oxide], the midpoint of inhibition, the IC50, lay at 1.32 µM.

The compound `CCOC(=O)c1cc2c(Nc3ccc4[nH]ccc4c3)c(C#N)cnc2s1` [Compound 502, ethyl 5-cyano-4-(1H-indol-5-ylamino)thieno[2,3-b]pyridine-2-carboxylate] returned an IC50 of 1.1 µM.

Turning to `Cc1c(Nc2c(C#N)cnc3scc(C(C)C)c23)ccc2[nH]ccc12` [Compound 503, 3-isopropyl-4-[(4-methyl-1H-indol-5-yl)amino]thieno[2,3-b]pyridine-5-carbonitrile], it took 0.011 µM to reach half-maximal inhibition (IC50).

For the compound `Cc1c(Nc2c(C#N)cnc3sc(-c4cnccn4)cc23)ccc2[nH]ccc12` [Compound 504, 4-[(4-methyl-1H-indol-5-yl)amino]-2-pyrazin-2-ylthieno[2,3-b]pyridine-5-carbonitrile], half-maximal inhibition (IC50) required 0.021 µM.

With `Cc1c(Nc2c(C#N)cnc3sc(-c4cccc5[nH]ccc45)cc23)ccc2[nH]ccc12` [Compound 505, 2-(1H-indol-4-yl)-4-[(4-methyl-1H-indol-5-yl)amino]thieno[2,3-b]pyridine-5-carbonitrile], inhibition was half-maximal at 0.113 µM (IC50).

Compound `Cc1c(Nc2c(C#N)cnc3sc(-c4cncnc4)cc23)ccc2[nH]ccc12` [Compound 506, 4-[(4-methyl-1H-indol-5-yl)amino]-2-pyrimidin-5-ylthieno[2,3-b]pyridine-5-carbonitrile] showed an IC50 of 0.017 µM.

`N#Cc1cnc2sc(I)cc2c1Nc1cnc2[nH]ccc2c1Cl` [Compound 507, 4-[(4-chloro-1H-pyrrolo[2,3-b]pyridin-5-yl)amino]-2-iodothieno[2,3-b]pyridine-5-carbonitrile]: inhibition was half-maximal at 0.069 µM (IC50).

`Cc1c(Nc2c(C#N)cnc3scc(-c4cccc(CN(C)C)c4)c23)ccc2[nH]ccc12` [Compound 508, 3-{3-[(dimethylamino)methyl]phenyl}-4-[(4-methyl-1H-indol-5-yl)amino]thieno[2,3-b]pyridine-5-carbonitrile]: the half-inhibitory concentration (IC50) is 0.011 µM.

Regarding `Cc1c(Nc2c(C#N)cnc3sc(-c4cccc(NS(=O)(=O)N(C)C)c4)cc23)ccc2[nH]ccc12` [Compound 509, N′-(3-{5-cyano-4-[(4-methyl-1H-indol-5-yl)amino]thieno[2,3-b]pyridin-2-yl}phenyl)-N,N-dimethylsulfamide], the IC50 stood at 0.051 µM.

In turn, `Cc1c(Nc2c(C#N)cnc3sc(-c4cccc(S(=O)(=O)NCCO)c4)cc23)ccc2[nH]ccc12` [Compound 510, 3-{5-cyano-4-[(4-methyl-1H-indol-5-yl)amino]thieno[2,3-b]pyridin-2-yl}-N-(2-hydroxyethyl)benzenesulfonamide] displayed a 50% inhibitory concentration (IC50) of 0.017 µM.

With `Cc1c(Nc2c(C#N)cnc3sc(-c4cc(C(=O)N(C)C)ccc4F)cc23)ccc2[nH]ccc12` [Compound 511, 3-{5-cyano-4-[(4-methyl-1H-indol-5-yl)amino]thieno[2,3-b]pyridin-2-yl}-4-fluoro-N,N-dimethylbenzamide], half-maximal inhibition (IC50) was put at 0.066 µM.

In the case of `Cc1c(Nc2c(C#N)cnc3sc(-c4cc(F)cc(C(=O)N(C)C)c4)cc23)ccc2[nH]ccc12` [Compound 512, 3-{5-cyano-4-[(4-methyl-1H-indol-5-yl)amino]thieno[2,3-b]pyridin-2-yl}-5-fluoro-N,N-dimethylbenzamide], the IC50 was 0.038 µM.

The compound `COCCOc1ccc(-c2cc3c(Nc4ccc5[nH]ccc5c4C)c(C#N)cnc3s2)cc1OCCOC` [Compound 513, 2-[3,4-bis(2-methoxyethoxy)phenyl]-4-[(4-methyl-1H-indol-5-yl)amino]thieno[2,3-b]pyridine-5-carbonitrile] returned a 50% inhibitory concentration (IC50) of 1.61 µM. This IC50 is about 42-fold higher than that of the compound before.
